One assay deals with NQO1. The assay is described as follows: NAD(P)H recycling assay (decrease of NAD(P)H by NQO1-activating candidate compounds). The assay is classed as biochemical. The protocol:
(10) NAD(P)H Recycling Assay
An NADH recycling assay was carried out using the above-extracted S9 supernatant or human recombinant NQO1 (hrNQO1). 20 μg of the S9 supernatant or 0.5 unit of hrNQO1 in conjunction with 200 μM NAD(P)H were added to a 25 mM Tris/HCl (pH 7.4) solution containing 0.2 mg/mL bovine serum albumin. The enzymatic reaction was initiated with addition of a […] compound and absorbance changes were monitored and recorded at 340 nm for 10 min.
For a variety of NQO1-activating candidate compounds as listed in Table 1 below, a decrease of NAD(P)H was measured based on the aforesaid experimental method (disclosed in Section 10 hereinbefore: NADH recycling assay). In addition, according to the experimental method given in Example 23, the body weight of ob/ob mice after four weeks was measured.
In this connection, the decreasing degree of NAD(P)H was expressed as a relative amount of NAD(P)H measured upon administration of the NQO1-activating candidate compound, by taking the amount of NAD(P)H in the absence of the NQO1 activator NAD(P)H to be 100. In addition, the degree of the body weight loss was expressed as a percentage of the body weight of ob/ob mice with administration of the NQO1-activating candidate compound, relative to the body weight of ob/ob mice without administration of the NQO1-activating candidate compound (control) after four weeks.

For a further assay, the system named is AMPK, ACC. As to the kind of experiment: AMPK and ACC phosphorylation in HepG2 cells (Western blot). The assay is classed as cell-based, human. The protocol:
Cells were lysed in SDS sample buffer (62.5 mM Tris HCl (pH 6.8), 6% (w/v) SDS, 30% glycerol, 125 mM DTT, and 0.03% (w/v) bromophenol blue). The total cell lysates were boiled at a temperature of 100° C. for 5 min and electrophoresed on a sodium dodecyl sulfate-polyacrylamide gel, and proteins were transferred on a nitrocellulose membrane. The membrane was reacted in TBS (5% (w/v) milk and 0.1% Tween 20) for 1 hour, and then reacted with primary antibodies for 2 hours. Next, the membrane was developed using HRP-conjugated secondary antibodies (Phototope-HRP Western Blot Detection Kit, New England Biolabs, Beverly, Mass.).
HepG2 (human hepatoma cell line), HEK293 (Human embryonic kidney cell line), and C2C12/L6 myoblasts were purchased from American Type Culture Collection (ATCC, Manassas, Va., USA). LKB−/− MEFs were purchased from R.A. DePinho. Rat ventricular myocytes were enzymatically isolated from the heart of adult […] by a known method. Phosphorylation of AMPK (Thr172) and ACC (Ser79) was measured by Western blot analysis using Cell Signaling Technologies and pan- and phospho-specific antibodies (Upstate Biotechnology, Inc., Lake Placid, N.Y.).
This Example was carried out to confirm whether an NQO1 activator has effects through NQO1 on phosphorylation of AMPK and ACC that are intracellular energy-regulating proteins. In order to examine phosphorylation of AMP kinase and ACC (acetyl-CoA carboxylase) by the NQO1 activator pyrano-1,2-naphthoquinone, HepG2 cells (Human hepatoma cell line) were seeded onto a 6-well plate at a density of 1×10^5 cells per well, and cultured in a RPMI+10% FBS medium. After growing the cells for 24 hours, the culture medium was replaced with a serum-free RPMI medium and cells were treated with pyrano-1,2-naphthoquinone (10 μM) for 30 min, 1 hr, 2 hrs, 4 hrs and 6 hrs, in combination with a control (DMSO). Anti-ACC and Anti-pS79-ACC were used to observe phosphorylated ACC, whereas Anti-AMPK and Anti-pT172-AMPK were used to observe phosphorylated AMP kinase.
In order to investigate the importance of an NQO1 protein in phosphorylation of AMP kinase, HepG2, MCF-7 and HEK293 cells were seeded onto 60 mm plates at a density of 1×10^6 cells/plate. After growing the cells for 24 hours, the culture medium was replaced with a serum-free medium, and cells were treated with pyrano-1,2-naphthoquinone (10 μM) for 30 min, respectively, in combination with a control group (DMSO). Cells were lysed in RIPA buffer and amounts of all proteins were quantified using a spectrophotometer, and 50 μg of the protein was subjected to electrophoresis. AMP kinase phosphorylation was examined using Anti-AMPK and Anti-pT172-AMPK, whereas the NQO1 protein was assayed using Anti-NQO1. […]

For a further assay, the system named is cardiomyocytes. As to the kind of experiment: mitochondrial oxygen consumption in cardiomyocytes. The assay is classed as cell-based. From the text:
FIG. 22 is a graph showing monitoring results of mitochondrial oxygen consumption using a Clark-type oxygen electrode;

Another assay has as its system eNOS. As to the kind of experiment: phosphorylation of endothelial nitric oxide synthase (eNOS) in HUVEC. The assay is classed as cell-based, human. Conditions: 10 μM. As for the experimental part: It is well-known that activation of AMPK activates NRF-1 and facilitates mitochondrial biogenesis. In addition, NO/cGMP activates PGC-1α and NRF-1 to facilitate mitochondrial biogenesis. In order to ascertain whether an NQO1 activator, which activates AMPK, is involved in production of nitric oxide (NO), a degree of phosphorylation, leading to an increase in activity of endothelial nitric oxide synthase (eNOS), was determined. […] The culture medium was replaced with a serum free EBM2 medium, and cells were treated with pyrano-1,2-naphthoquinone (10 μM) for a predetermined time. Phosphorylated eNOS was observed using Anti-[…] eNOS.

As for `CC1(C)CCC2=C(O1)c1ccccc1C(=O)C2=O` [βL, 2,2-Dimethyl-3,4-dihydro-2H-benzo[h]chromene-5,6-dione], in the assay with NQO1 (relative amount of NAD(P)H, amount in the absence of the NQO1 activator taken to be 100), the “Residual amount of NAD(P)H(%)” value is 61.27 ± 1.09%. Besides, the “decrease of NAD(P)H and consequent body weight reduction” value in the assay on NQO1 (summary of Table 1 in words) is “significant decrease of NAD(P)H”. In the assay on AMPK, ACC (HepG2, 10 μM), the “duration of AMP kinase phosphorylation effects” value is given as “up to 6 hours”, the “initial time point at which phosphorylation of AMP kinase was observed” value was 30 min and the “phosphorylation of ACC” value is on record as “also phosphorylated”. In the assay on AMPK, ACC (HepG2 cells), the “ACC phosphorylation and AMPK phosphorylation/activation” value is on record as “accelerates”. The mitochondrial oxygen consumption entry in the assay with cardiomyocytes was “increased”. Further, the “time of maximum increase of phosphorylation of eNOS” value in the assay with eNOS amounted to 30 min. For the same compound, in the assay with eNOS (2 hours), the “phosphorylation of eNOS 2 hours later” value was “not observed”.

The record behind these values is patent US20140106387A1, “METHOD FOR CONTROLLING NAD(P)/NAD(P)H RATIO BY OXIDOREDUCTASE” (MD BIOALPHA CO., LTD., priority 2006, published 2014).
